Patent publication US8367666B2 (priority 2004, dated 2013)
Where two headings read alike, the source gives them in different places.

What was measured:
[1] = target: T1, CB2 receptor (Homo sapiens, UniProt P34972); experiment: Human cannabinoid receptor bonding inhibition test ([3H]CP55940), CB2; type: binding; parameters: expressed in transfected cells; membrane fraction
[2] = target: T2, CB1 receptor (Homo sapiens, UniProt P21554); experiment: Human cannabinoid receptor bonding inhibition test ([3H]CP55940), CB1; type: binding; parameters: expressed in transfected cells; membrane fraction
[3] = tested on: scratching action induced by Compound 48/80; experiment: Anti-pruritic activity test by application (Compound 48/80 scratching); type: in vivo, mouse (Crj:CD-1 (ICR)); conditions: Mus musculus, topical, read-out: Itching inhibition ratio % (Concentration %)
Procedure: 1) Preparation of the compound and the reagent: The compound being tested was dissolved in acetone (SIGMA). Compound 48/80 (SIGMA) was dissolved in physiological saline (m by Otsuka Pharmaceutical Co., Ltd.) so as to be 60 μg/mL.
2) Animals: Female Crj: CD-1 (ICR) mice of 6 to 10 age in week (Japan Charles Liver) were used as laboratory animals. The animals were fed in the barrier breeding room where […] in room temperature, 30 to 70% in humidity, and the light and shade condition existed every 12 hours and feed (CE-2: Japan Crea) and the drinking water were freely taken. The hair of dorsa (from the cervical region of the back to the center of the back) of the animals were cut with a hair clipper two days or more before the anti-pruritic activity is evaluated, those with no wound, rubefaction, and thickening of the skin on the dehaired part were chosen and supplied to the experiment on the day of the evaluation. 3) Evaluation procedures: The acetone solution of the compound being tested was applied by 50 μL on the dehaired parts of the mice with a pipeter. On the mice of the control group, 50 μL of acetone was applied. The 15 minutes later, 50 μL (corresponding to 3 μg) of Compound 48/80 solution was injected intradermally in the compound applied parts with the use of a injector (Terumo Corporation), the mice were individually put in five observation cages made of acrylate resin at once, and the scratching action (action of scratching the injection part by the hind leg) frequency during 30 minutes was measured. The evaluation was carried out in one group of 5 to 7 mice. 4) Data processing: The experiment results were shown by the mean values. The test of the significant difference of the compound applying group to the control group was conducted with Welch's t-test, and p<0.05 was assumed to be significant.

[4] = target: T2, CB1 receptor; experiment: cAMP formation inhibition experiment through a cannabinoid receptor (forskolin stimulation), CB1; type: cell-based; parameters: expressed in transfected cells; host or cells: CHO cells
Procedure: A compound being tested was added in the CHO cell which had mad human CB1 or CB2 receptor reveal and incubated for 15 minutes, and then forskolin (the final concentration 4 μM, and manufactured by SIGMA Corp.) was added and the mixture was incubated for 20 minutes. After the reaction had been stopped by adding 1M hydrochloric acid, the amount of cAMP in the supernatant was measured with the use of Cyclic AMP kit (made by the CIS Diagnostic Corp.).

[5] = target: T1, CB2 receptor; experiment: cAMP formation inhibition experiment through a cannabinoid receptor (forskolin stimulation), CB2; type: cell-based; parameters: expressed in transfected cells; host or cells: CHO cells
[6] = read-out: Agonist activity (nM) CB1
[7] = [3H]CP55940 0.5 nM, membrane preparation of CHO cells expressing CB1, Ki calculated from IC50, read-out: Binding activity (nM) CB1
[8] = [3H]CP55940 0.5 nM, membrane preparation of CHO cells expressing CB2, Ki calculated from IC50, read-out: Binding activity (nM) CB2
[9] = read-out: Binding activity (nM) CB1
[10] = read-out: Agonist activity (nM) CB2

T1 sequence (P34972 whole entry): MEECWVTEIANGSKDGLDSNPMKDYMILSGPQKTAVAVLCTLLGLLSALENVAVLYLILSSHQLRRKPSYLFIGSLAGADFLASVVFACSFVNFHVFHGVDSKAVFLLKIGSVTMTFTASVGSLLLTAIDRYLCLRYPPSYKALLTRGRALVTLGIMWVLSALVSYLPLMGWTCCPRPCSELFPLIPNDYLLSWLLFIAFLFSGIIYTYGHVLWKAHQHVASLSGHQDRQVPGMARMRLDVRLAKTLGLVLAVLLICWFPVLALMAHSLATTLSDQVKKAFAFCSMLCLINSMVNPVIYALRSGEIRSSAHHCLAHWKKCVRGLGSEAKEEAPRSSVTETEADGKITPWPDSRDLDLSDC
T2 sequence (P21554 whole entry): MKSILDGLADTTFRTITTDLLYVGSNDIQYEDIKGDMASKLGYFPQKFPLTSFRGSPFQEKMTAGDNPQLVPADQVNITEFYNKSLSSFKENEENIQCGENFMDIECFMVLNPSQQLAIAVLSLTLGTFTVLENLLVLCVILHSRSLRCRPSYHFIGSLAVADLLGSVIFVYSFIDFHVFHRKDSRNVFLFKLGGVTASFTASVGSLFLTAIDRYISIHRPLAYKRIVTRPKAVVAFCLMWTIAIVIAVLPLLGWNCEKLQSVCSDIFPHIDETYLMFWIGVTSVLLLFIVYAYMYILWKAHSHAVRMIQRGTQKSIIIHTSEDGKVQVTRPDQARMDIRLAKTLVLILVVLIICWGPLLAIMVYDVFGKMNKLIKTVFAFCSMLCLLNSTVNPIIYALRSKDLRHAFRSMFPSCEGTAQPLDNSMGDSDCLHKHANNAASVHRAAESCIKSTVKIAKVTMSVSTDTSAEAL

Structure (SMILES)	Ki [1] [nM]	Ki [2] [nM]	IC50 [4, 6] [nM]	Ki [2, 7] [nM]	IC50 [5] [nM]	IC50 [4] [nM]	also measured
CC(C)(NC(=O)c1cc2c(n(CC3CCCCC3)c1=O)CCCCCC2)C(=O)OCC(O)CO (stereo not shown) [Compound I-305]	< 2	< 2	< 2	–	–	–	inhibition in vivo at 0.5 % [3]: 61%
CCc1c(C)cc(C(=O)NC2(CC(=O)O)CCCC2)c(=O)n1Cc1ccc(F)cc1 [Compound X-234]	4	–	–	482	6.1	375	–
CCCCn1c2c(cc(C(=O)NC(CCC(=O)O)CC(C)C)c1=O)CCCCCC2 (stereo not shown) [Compound X-202]	46	–	–	1180	81	> 2000	–
CSC(=O)C(C)(C)NC(=O)c1cc2c(n(CC3CCCCC3)c1=O)CCCCCC2 [Compound I-001, 2-[(1-cyclohexylmethyl-2-oxo-1,2,5,6,7,8,9,10-octahydro-cycloocta[b]pyridine-3-carbonyl)-amino]-2-methyl-thiopropionic acid S-methyl ester]	< 2	< 2	< 2	–	–	–	inhibition in vivo at 0.5 % [3]: 53%
CCCCn1c2c(cc(C(=O)N[C@H](C(=O)OC)C(C)(C)C)c1=O)CCCCCC2 [Compound I-203]	< 2	< 2	< 2	–	–	–	inhibition in vivo at 0.5 % [3]: 86%
COC(=O)[C@@H](NC(=O)c1cc2c(n(Cc3ccc(F)cc3)c1=O)CCCCCC2)C(C)C [Compound I-253]	< 2	< 2	< 2	–	–	–	inhibition in vivo at 1.5 % [3]: 70%
CCc1c(C)cc(C(=O)NC2(C(=O)O)CCCCCCC2)c(=O)n1Cc1ccc(F)cc1 [Compound X-239]	10	–	–	1420	3.6	> 2000	–
O=C(NC1(C(=O)O)CCCCCCC1)c1cc2c(n(CC3CCCCC3)c1=O)CCCCCC2 [Compound X-240]	–	–	–	793	< 2	–	Ki [1, 8]: 6.2 nM; IC50 ([4]; inhibition of forskolin (4 μM)-stimulated cAMP formation, CHO cells expressing human CB1, read-out: Agonist activity (nM) CB1): 468 nM
CCCCn1c2c(cc(C(=O)NCc3ccccc3)c1=O)CCCCCC2 [Compound 4-101, reference compound]	1.9	–	–	–	–	–	inhibition in vivo at 5 % [3]: 7.5%
COCOC(=O)C(C)(C)NC(=O)c1cc2c(n(CC3CCCCC3)c1=O)CCCCCC2 [Compound I-306]	< 2	< 2	< 2	–	–	–	inhibition in vivo at 0.5 % [3]: 83%
CCc1c(C)cc(C(=O)Nc2nc(CC(=O)O)cs2)c(=O)n1Cc1ccc(F)cc1 [Compound X-222]	43	–	–	1620	57	> 2000	–
CCc1c(C)cc(C(=O)NC2(C(=O)O)CCCCCCCCC2)c(=O)n1Cc1ccc(F)cc1 [Compound X-231]	38	–	–	> 2000	35	> 2000	–
CCCCn1c(CCC)c(CC)cc(C(=O)NC2(C(=O)O)CCCCCC2)c1=O [Compound X-241]	57	–	–	> 2000	26	> 2000	–
CC(C)OC(=O)C(C)(C)NC(=O)c1cc2c(n(CC3CCCCC3)c1=O)CCCCCC2 [Compound I-301]	< 2	< 2	< 2	–	–	–	inhibition in vivo at 0.5 % [3]: 39%
O=C(NC1(C(=O)O)CCCCC1)c1cc2c(n(Cc3ccc(F)c(F)c3)c1=O)CCCCCC2 [XI-017]	6.6	–	–	441	11	127	–
CCCCn1c2c(cc(C(=O)NC3CCCCC3)c1=O)CCCCCC2 [Compound 10-035, reference compound]	0.2	19	–	–	–	–	inhibition in vivo at 5 % [3]: 22%
CCc1c(C)cc(C(=O)NC2(C(=O)O)CCCCC2)c(=O)n1Cc1ccc(F)cc1 [Compound I-493]	–	> 2000	–	–	–	–	Ki [1, 8]: 36 nM; IC50 ([5]; inhibition of forskolin (4 μM)-stimulated cAMP formation, CHO cells expressing human CB2, read-out: Agonist activity (nM) CB2): 24 nM
CCc1c(C)cc(C(=O)N[C@H](C(=O)OC)C(C)C)c(=O)n1CC1CCCCC1 [Compound I-134]	< 2	< 2	< 2	–	–	–	inhibition in vivo at 0.5 % [3]: 91%

Structure (SMILES)	Ki [1] [nM]	Ki [2] [nM]	IC50 [4, 6] [nM]	Ki [2, 7] [nM]	IC50 [5] [nM]	IC50 [4] [nM]	also measured
CCCCn1c2c(cc(C(=O)N[C@H](C(=O)OC)C(C)C)c1=O)CCCCCC2 [Compound I-111]	< 2	3.5	< 2	–	–	–	inhibition in vivo at 0.1 % [3]: 55%
CCCCn1c2c(cc(C(=O)N[C@H](CC(=O)O)CC(C)C)c1=O)CCCCCC2 [Compound X-138]	42	–	–	> 2000	30	> 2000	–
CCCCn1c(CCC)c(CC)cc(C(=O)NC2(CC(=O)O)CCCC2)c1=O [Compound X-233]	24	–	–	> 2000	15	> 2000	–
CCOC(=O)C(C)(C)NC(=O)c1cc2c(n(CC3CCCCC3)c1=O)CCCCCC2 [Compound I-300]	< 2	< 2	< 2	–	–	–	inhibition in vivo at 0.5 % [3]: 41%
COC(=O)C(C)(C)NC(=O)c1cc2c(n(Cc3ccc(F)cc3)c1=O)CCCCCC2 [Compound I-255]	< 2	2.1	< 2	–	–	–	inhibition in vivo at 1.5 % [3]: 93%
CCCc1c(CC)cc(C(=O)N[C@H](C(=O)OC)C(C)C)c(=O)n1CC1CCCCC1 [Compound I-133]	< 2	5	4	–	–	–	inhibition in vivo at 0.5 % [3]: 56%
CCc1c(C)cc(C(=O)Nc2nc(CC(=O)O)ns2)c(=O)n1CC1CCCCC1 [Compound X-133]	5.5	–	–	> 2000	< 2	> 2000	–
CCc1c(C)cc(C(=O)NCC2(CC(=O)O)CCCCC2)c(=O)n1Cc1ccc(F)cc1 [Compound X-197]	41	1260	708	–	7.2	–	–
O=C(O)C1=C(NC(=O)c2cc3c(n(CC4CCCCC4)c2=O)CCCCCC3)CCCC1 [Compound X-126]	31	873	131	–	35	–	–
CCc1c(C)cc(C(=O)Nc2nc(CC(=O)O)cs2)c(=O)n1Cc1ccc(F)c(F)c1 [XI-025]	54	–	–	–	–	> 2000	Ki [2, 9]: 1360 nM; IC50 [5, 10]: 209 nM
CCCCn1c(CCC)c(CC)cc(C(=O)NC2(CC(=O)O)CCCCC2)c1=O [Compound X-174]	8.9	–	–	> 2000	9.8	> 2000	–
CCCCn1c(CCC)c(CC)cc(C(=O)NC(CC)(CC)CC(=O)O)c1=O [Compound X-196]	31	–	–	> 2000	45	> 2000	–
CCc1c(C)cc(C(=O)NC2(C(=O)O)CCCCC2)c(=O)n1Cc1ccc(F)c(F)c1 [XI-027]	54	–	–	–	–	> 2000	Ki [2, 9]: 1360 nM; IC50 [5, 10]: 209 nM
CCCCn1c2c(cc(C(=O)NC(CC)(CC)CC(=O)O)c1=O)CCCCCC2 [Compound X-128]	10	–	–	608	3	152	–
CCCCn1c2c(cc(C(=O)NC3(CC(=O)O)CCCC3)c1=O)CCCCCC2 [Compound X-235]	3.7	950	270	–	4.7	–	–
CCCCn1c2c(cc(C(=O)NC3(CC(=O)O)CCCCC3)c1=O)CCCCCC2 [Compound X-157]	3.4	–	–	270	< 2	268	–
CCCCn1c2c(cc(C(=O)NC3(C(=O)O)CCCCCCCCC3)c1=O)CCCCCC2 [Compound X-232]	15	–	–	> 2000	29	> 2000	–
